Assay results: patent publication US6673365B1, “Formulation for treatment of thromboembolism” (priority 1996, dated 2004)

Experiment: Bioavailability in vivo in the rat after intraduodenal administration
Procedure: The formulations, A to D, respectively, were tested in vivo in the rat model using intraduodenally catheterized, nonanesthetized animals. Formulations were given as a bolus. Blood samples were withdrawn at certain time points for up to 4 hours after administration of the different formulations. The concentrations of HOOC—CH2—(R)-Cgl-Aze-Pab were analyzed in the plasma and the bioavailabilities calculated from the Area under the curve (AUC) using standard pharmacokinetic methods (Rowland and Tozer, Clinical Pharmacokinetics, concepts and applications, 1980).
The bioavailability increased tenfold to twentyfold when the different formulations mentioned in the invention were used, as compared to controls where only phosphate buffer of pH 8 was used (1). Formulation B was also tested in human healthy subjects using enteric coated capsules for administration directly to the duodenum. The results from the human study also indicate a tenfold increased absorption as compared to a control tablet or solution of the thrombin inhibitor base only.

## CCCCCCCC(=O)OCC(O)CO (stereo not shown) [glyceryl mono-octanoate(1-monocaprylin), glyceryl mono-octanoate]
  Enhancing effect, glycerides from different sources compared: most efficient enhancing effect
